Source: patent US11714087B2, “Treatment of necroptosis” (priority 2018, dated 2023)

How the values were obtained:
Assay type in all cases: in vivo, Sprague-Dawley rats
[1] = tested on: liver and kidney sections; test: Rodent ACLF model (BDL+LPS rats): TUNEL staining of liver and kidney sections (cell death)
Protocol: (§1) The animal model of ACLF utilised in this study was developed using a well-characterized rodent model of advanced fibrosis induced by bile duct ligation (BDL) with ACLF induced in this model by infusion of LPS. Bile duct ligation, housing, and care of the animals were performed as previously described. Four groups of adult male Sprague-Dawley rats were studied (n=4-8 in each group). The animals were studied 4 weeks after either sham-operation or BDL. The animals in each group were terminated 3-h after administration of LPS (Klebsiella pneumoniae) (0.3 mg/kg/hr, intravenously) or saline under terminal anaesthesia.
(§2) Necrostatin 1 (Nec-1, Calbiochem, Sigma Aldrich, UK) was prepared as follows. Nec-1 was redissolved in N-2 methyl-pyrrolidone (NMP) to make a 200 mg/ml stock solution which was then further diluted to an intermediate concentration of 40 mg/ml in NMP. […]
(§3) Terminal deoxynucleotidyl transferase biotin-dUTP nick end labeling (TUNEL) staining of deparaffinised and proteinase K-treated liver and kidney sections was performed using the In-Situ Cell Death Detection kit, POD (Roche, UK) as per manufacturer's protocol. […] Quantitative analysis of immunohistochemistry positive area was assessed by measuring optical density using FIJI Image J software.

RIPK3 = test: Rodent ACLF model (BDL+LPS rats): plasma RIPK3 by ELISA; details: BDL+NEC-1+LPS vs BDL+Vehicle+LPS
Protocol: as §1, §2
Blood was withdrawn from the carotid line and immediately placed in heparin or EDTA-containing tubes (until full exsanguination), centrifuged (3,500 rpm for 10 min at 4° C.) and the plasma was stored at −80° C. for later use in biochemistry and RIPK3 quantification [Rat RIPK3 (Receptor-interacting serine/threonineprotein kinase) ELISA kit, Cat. No. ER0446, Wuhan Fine Biological Technology Co., Ltd., China]. […]

[2] = Rodent ACLF model (BDL+LPS rats): plasma biochemistry, histone 3 and brain water
Protocol: as §1
Necrostatin 1 (Nec-1, Calbiochem, Sigma Aldrich, UK) was prepared as follows. Nec-1 was redissolved in N-2 methyl-pyrrolidone (NMP) to make a 200 mg/ml stock solution which was then further diluted to an intermediate concentration of 40 mg/ml in NMP. The 40 mg/ml solution was finally diluted to a working concentration of 1 mg/ml in a solution of 30% (2-hydroxypropyl) β-cyclodextrin (Sigma, Cat No H107)/0.5% Citric acid.
(§4) 4. BDL animals administered LPS and Nec-1; This group of BDL rats received an i.p. injection of 3.3 mg/kg Nec-1 followed, by an i.p injection of LPS, 3 hr later.
Animals were sacrificed 3 hours after LPS.
Blood was withdrawn from the carotid line and immediately placed in heparin or EDTA-containing tubes (until full exsanguination), centrifuged (3,500 rpm for 10 min at 4° C.) and the plasma was stored at −80° C. for later use in biochemistry and RIPK3 quantification [Rat RIPK3 (Receptor-interacting serine/threonineprotein kinase) ELISA kit, Cat. No. ER0446, Wuhan Fine Biological Technology Co., Ltd., China]. Organs were harvested and either fixed in formalin for histological assessment or snap frozen.

RIPK1 = target: T1, RIPK1 (Rattus norvegicus, UniProt D3ZYL0); test: Rodent ACLF model (BDL+LPS rats): RIPK1 immunostaining of liver tissue; details: 3.3 mg/kg Nec-1 i.p. 3 hr before LPS, vs BDL+Vehicle+LPS, p=0.009
T1 construct: Representative images of liver tissue of sham, BDL, BDL+LPS and BDL+NEC-1+LPS stained for RIPK1; from tissue; host or cells: rat liver (BDL+LPS ACLF model)
T1 sequence (D3ZYL0 1-658): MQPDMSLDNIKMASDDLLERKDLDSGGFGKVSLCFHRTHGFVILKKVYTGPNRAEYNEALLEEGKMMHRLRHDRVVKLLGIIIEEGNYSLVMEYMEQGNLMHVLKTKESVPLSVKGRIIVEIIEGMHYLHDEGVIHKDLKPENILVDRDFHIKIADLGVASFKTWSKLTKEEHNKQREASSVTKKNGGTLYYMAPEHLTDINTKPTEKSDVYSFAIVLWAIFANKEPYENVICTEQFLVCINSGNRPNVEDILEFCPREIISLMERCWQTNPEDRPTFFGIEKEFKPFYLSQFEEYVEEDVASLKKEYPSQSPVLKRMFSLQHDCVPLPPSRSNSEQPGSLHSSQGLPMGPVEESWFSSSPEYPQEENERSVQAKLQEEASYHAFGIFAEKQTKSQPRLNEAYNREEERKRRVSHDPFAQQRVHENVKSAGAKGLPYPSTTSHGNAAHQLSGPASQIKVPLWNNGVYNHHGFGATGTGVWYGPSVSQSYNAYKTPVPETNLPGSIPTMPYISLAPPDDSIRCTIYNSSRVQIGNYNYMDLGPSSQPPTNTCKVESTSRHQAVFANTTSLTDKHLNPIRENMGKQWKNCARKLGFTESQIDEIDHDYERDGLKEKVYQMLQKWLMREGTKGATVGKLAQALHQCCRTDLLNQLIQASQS
Protocol: as §1, §2, §3

Caspase 3/7 = test: Liver Caspase 3/7 activity (Caspase-Glo) in rodent ACLF model; details: BDL+NEC-1+LPS group; IQR 1640-3890; p=0.626 compared to BDL
Protocol: as §1, §4
(§5) Liver Caspase 3/7 and 8 activities were measured using Caspase-Glo assay kits (Promega). Briefly, cytosolic extracts from liver tissue were obtained by homogenisation in hypotonic extraction buffer [10 mM HEPES, 0.5% Triton X-100, 2 mM DTT, protease inhibitor cocktail (Sigma)] using a TissueLyser LT sytem (Qiagen, UK). […] After quantification using BCA™ Protein Assay Kit (Pierce, UK), protein concentrations of supernatant were adjusted to 1 mg/ml with extraction buffer and stored at −80° C. […] Luminescence was measured using a plate-reading luminometer (FLUOstar Omega, BMG Labtech, UK).

Caspase 8 = test: Liver Caspase 8 activity (Caspase-Glo) in rodent ACLF model; details: BDL+NEC-1+LPS group; IQR 313.5-414.3; p=0.020 compared to BDL
Protocol: as §1, §4, §5

**Q.** Which “total cell death in the livers (TUNEL staining)” value ([1]; BDL+NEC-1+LPS vs BDL+Vehicle+LPS, p=0.001) does the source give for CN1C(=O)C(Cc2c[nH]c3ccccc23)NC1=S (stereo not drawn) [NEC-1, Necrostatin 1] here?
**A.** significant reduction in total cell death

**Q.** What about the “cell death in kidneys (TUNEL staining)” value ([1]; BDL+NEC-1+LPS vs BDL+vehicle+LPS, p=0.002) of the same compound?
**A.** significant reduction in cell death

**Q.** What about the “plasma RIPK3 levels” value (RIPK3) of the same compound?
**A.** reduced markedly

**Q.** And the plasma urea levels ([2]; BDL+NEC-1+LPS vs BDL+Vehicle+LPS, p=0.012)?
**A.** significant reduction

**Q.** And the plasma albumin levels ([2]; BDL+NEC-1+LPS vs BDL+Vehicle+LPS, p=0.017)?
**A.** significantly higher

**Q.** And the plasma creatinine ([2]; BDL+NEC-1+LPS vs BDL+Vehicle+LPS, p=0.020)?
**A.** significant reduction

**Q.** What about the “plasma AST” value ([2]; BDL+NEC-1+LPS vs BDL+Vehicle+LPS, p=0.037) of the same compound?
**A.** significantly lower

**Q.** What about the brain water content ([2]; BDL+NEC-1+LPS vs BDL+Vehicle+LPS, p=0.100) of the same compound?
**A.** reduction in brain water content, although not statistically significant

**Q.** And the “circulating levels of histone 3” value ([2]; NEC-1 treated group vs BDL+Vehicle+LPS, p=0.048)?
**A.** significant reduction in circulating levels of histone 3

**Q.** What about the “expression of RIPK1 in liver (immunostaining optical density)” value (RIPK1) of the same compound?
**A.** significantly decreased

**Q.** And the “Caspase 3/7 activity in liver homogenates, median” value (Caspase 3/7)?
**A.** 2857 RLU

**Q.** What about the “Caspase 8 activity in liver homogenates, median” value (Caspase 8) of the same compound?
**A.** 326.5 RLU
